Assays:
PC-9 [1] = assay: Antiproliferative activity against human PC-9 cells harboring EGFR del19/T790M/C797S mutant assessed as inhibition of cell proliferation; format: functional, cell-based
BaF3 = assay: Antiproliferative activity against mouse BaF3 cells harboring del19/T790M/C797S mutant assessed as inhibition of cell proliferation; format: functional, cell-based
PC-9 [2] = assay: cells; details: Homo sapiens, PC-9, 72 h
[3] = AUC (0 to last) in CD-1 mouse at 2 mg/kg, iv; format: ADME, organism-based; set-up: time 0 - last, dose 2 mg/kg, route iv; details: in vivo
Homo sapiens [4] = organism: Homo sapiens; assay: Selectivity ratio of IC50 for inhibition of wild type EGFR (unknown origin) to IC50 for inhibition of EGFR del19/T790M mutant (unknown origin)
[5] = target: Epidermal growth factor receptor (Homo sapiens, UniProt P00533, L858R); assay: Inhibition of EGFR L858R mutant (unknown origin)
Epidermal growth factor receptor (Homo sapiens, UniProt P00533, L858R), sequence (P00533 25-1210 L858R limits assumed): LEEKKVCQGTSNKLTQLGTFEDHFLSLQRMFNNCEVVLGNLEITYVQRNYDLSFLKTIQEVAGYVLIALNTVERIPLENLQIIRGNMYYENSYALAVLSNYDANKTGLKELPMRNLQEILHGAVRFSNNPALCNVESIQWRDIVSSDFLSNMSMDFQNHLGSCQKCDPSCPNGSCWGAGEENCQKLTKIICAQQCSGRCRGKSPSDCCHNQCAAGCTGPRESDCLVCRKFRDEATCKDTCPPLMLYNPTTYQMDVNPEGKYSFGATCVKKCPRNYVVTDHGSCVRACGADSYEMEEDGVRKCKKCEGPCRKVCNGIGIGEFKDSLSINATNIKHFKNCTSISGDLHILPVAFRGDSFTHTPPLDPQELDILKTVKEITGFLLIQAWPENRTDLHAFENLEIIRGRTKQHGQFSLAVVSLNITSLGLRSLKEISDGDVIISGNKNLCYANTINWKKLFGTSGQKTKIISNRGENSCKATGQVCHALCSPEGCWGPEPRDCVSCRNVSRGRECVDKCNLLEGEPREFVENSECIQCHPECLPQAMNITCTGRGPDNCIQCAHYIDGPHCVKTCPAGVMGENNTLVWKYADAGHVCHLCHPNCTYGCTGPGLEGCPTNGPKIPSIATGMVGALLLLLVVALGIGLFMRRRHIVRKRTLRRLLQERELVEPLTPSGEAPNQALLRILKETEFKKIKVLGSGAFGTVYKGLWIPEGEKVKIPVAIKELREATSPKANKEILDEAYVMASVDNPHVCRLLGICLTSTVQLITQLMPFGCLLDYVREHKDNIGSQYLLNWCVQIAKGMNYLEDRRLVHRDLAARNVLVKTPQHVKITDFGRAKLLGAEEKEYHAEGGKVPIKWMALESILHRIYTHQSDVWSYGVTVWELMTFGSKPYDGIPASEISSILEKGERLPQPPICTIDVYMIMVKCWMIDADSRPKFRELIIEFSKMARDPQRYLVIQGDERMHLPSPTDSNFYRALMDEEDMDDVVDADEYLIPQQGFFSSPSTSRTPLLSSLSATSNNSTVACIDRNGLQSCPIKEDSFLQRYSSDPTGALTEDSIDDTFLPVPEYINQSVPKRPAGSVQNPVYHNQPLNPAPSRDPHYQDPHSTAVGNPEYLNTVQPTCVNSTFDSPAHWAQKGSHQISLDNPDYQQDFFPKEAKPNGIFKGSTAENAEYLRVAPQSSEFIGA

[6] = target: Epidermal growth factor receptor (Homo sapiens, UniProt P00533, L858R/T790M); assay: Inhibition of EGFR L858R/T790M mutant (unknown origin)
Epidermal growth factor receptor (Homo sapiens, UniProt P00533, L858R/T790M), sequence (P00533 25-1210 T790M/L858R limits assumed): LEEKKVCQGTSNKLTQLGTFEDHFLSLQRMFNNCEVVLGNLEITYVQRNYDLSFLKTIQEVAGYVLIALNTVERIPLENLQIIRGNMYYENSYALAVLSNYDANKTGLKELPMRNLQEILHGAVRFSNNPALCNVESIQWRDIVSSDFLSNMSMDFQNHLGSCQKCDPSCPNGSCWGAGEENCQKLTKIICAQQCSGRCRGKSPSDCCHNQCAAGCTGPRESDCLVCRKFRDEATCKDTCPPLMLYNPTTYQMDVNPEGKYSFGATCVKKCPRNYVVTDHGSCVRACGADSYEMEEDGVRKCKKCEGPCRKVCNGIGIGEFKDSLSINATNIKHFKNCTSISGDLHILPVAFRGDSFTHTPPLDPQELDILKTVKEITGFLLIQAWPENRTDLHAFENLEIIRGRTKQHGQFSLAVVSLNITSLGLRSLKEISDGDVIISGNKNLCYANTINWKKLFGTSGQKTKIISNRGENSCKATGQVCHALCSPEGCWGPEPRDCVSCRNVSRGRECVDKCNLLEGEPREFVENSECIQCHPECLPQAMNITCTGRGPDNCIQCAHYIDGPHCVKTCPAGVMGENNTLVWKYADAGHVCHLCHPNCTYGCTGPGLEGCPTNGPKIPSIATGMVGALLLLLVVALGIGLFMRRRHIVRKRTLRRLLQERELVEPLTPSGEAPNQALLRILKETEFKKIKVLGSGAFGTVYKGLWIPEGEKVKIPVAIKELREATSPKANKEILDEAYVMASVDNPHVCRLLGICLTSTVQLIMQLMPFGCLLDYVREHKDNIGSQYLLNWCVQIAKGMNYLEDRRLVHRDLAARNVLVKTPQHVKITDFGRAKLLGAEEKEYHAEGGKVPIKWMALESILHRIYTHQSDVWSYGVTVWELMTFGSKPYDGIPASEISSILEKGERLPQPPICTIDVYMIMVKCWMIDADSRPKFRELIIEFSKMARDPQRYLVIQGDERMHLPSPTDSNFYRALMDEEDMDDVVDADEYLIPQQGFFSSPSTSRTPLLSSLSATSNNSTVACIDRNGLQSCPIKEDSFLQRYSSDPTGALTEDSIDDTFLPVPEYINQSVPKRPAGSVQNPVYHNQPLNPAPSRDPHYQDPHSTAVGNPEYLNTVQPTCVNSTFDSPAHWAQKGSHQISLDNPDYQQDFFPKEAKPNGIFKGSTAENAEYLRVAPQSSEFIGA

Homo sapiens [7] = organism: Homo sapiens; assay: Selectivity ratio of IC50 for inhibition of wild type EGFR (unknown origin) to IC50 for inhibition of EGFR L858R mutant (unknown origin)
[8] = Oral bioavailability in CD-1 mouse at 10 mg/kg; format: ADME, organism-based; details: in vivo
[9] = target: Epidermal growth factor receptor (Homo sapiens, UniProt P00533, C797S/L858R/T790M); assay: Inhibition of EGFR L858R/T790M/C797S mutant (unknown origin)
Epidermal growth factor receptor (Homo sapiens, UniProt P00533, C797S/L858R/T790M), sequence (P00533 25-1210 T790M/C797S/L858R limits assumed): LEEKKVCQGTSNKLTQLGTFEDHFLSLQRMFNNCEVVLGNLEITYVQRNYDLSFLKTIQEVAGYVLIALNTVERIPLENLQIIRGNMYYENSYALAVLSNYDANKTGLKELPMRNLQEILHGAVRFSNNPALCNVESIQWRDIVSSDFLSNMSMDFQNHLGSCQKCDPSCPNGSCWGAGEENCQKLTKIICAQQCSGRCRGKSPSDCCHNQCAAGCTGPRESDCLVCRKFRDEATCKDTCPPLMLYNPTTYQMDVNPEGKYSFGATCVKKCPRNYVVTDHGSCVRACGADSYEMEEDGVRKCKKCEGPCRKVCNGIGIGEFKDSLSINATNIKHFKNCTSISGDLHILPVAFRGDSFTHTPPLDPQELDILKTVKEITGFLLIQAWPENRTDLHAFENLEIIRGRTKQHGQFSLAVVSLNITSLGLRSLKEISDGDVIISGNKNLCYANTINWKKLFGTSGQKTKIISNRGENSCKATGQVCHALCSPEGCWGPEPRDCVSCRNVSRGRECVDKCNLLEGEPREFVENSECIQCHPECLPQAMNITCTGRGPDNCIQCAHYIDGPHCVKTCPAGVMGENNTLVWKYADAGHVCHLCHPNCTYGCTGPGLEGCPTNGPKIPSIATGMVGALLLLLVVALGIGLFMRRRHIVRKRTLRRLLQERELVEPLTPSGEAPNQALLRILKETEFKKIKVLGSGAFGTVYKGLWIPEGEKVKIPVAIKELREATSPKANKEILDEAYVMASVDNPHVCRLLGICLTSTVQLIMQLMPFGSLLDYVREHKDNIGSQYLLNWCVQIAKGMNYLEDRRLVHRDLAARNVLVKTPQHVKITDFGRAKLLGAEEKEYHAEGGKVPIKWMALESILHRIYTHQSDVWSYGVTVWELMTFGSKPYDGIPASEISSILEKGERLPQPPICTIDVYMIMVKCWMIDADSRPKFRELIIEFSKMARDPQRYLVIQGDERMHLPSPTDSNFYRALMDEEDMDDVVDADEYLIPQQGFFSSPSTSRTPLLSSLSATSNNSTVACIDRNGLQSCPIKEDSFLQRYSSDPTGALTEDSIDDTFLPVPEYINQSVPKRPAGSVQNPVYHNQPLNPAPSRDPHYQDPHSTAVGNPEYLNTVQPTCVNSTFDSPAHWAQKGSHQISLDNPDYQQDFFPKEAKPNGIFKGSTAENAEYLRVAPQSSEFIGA

Homo sapiens [10] = organism: Homo sapiens; assay: Selectivity ratio of IC50 for inhibition of wild type EGFR (unknown origin) to IC50 for inhibition of EGFR del19/T790M/C797S mutant (unknown origin)
[11] = target: Epidermal growth factor receptor (Homo sapiens, UniProt P00533, EX19DEL/T790M); assay: Inhibition of EGFR del19/T790M mutant (unknown origin)
Homo sapiens [12] = organism: Homo sapiens; assay: Selectivity ratio of IC50 for inhibition of wild type EGFR (unknown origin) to IC50 for inhibition of EGFR L858R/T790M mutant (unknown origin)
[13] = Clearance in CD-1 mouse at 2 mg/kg, iv; format: ADME, organism-based; details: in vivo
[14] = Volume of distribution at steady state in CD-1 mouse at 2 mg/kg, iv; format: ADME, organism-based; details: in vivo, read-out: Vdss
[15] = target: Epidermal growth factor receptor (Homo sapiens, UniProt P00533); assay: Inhibition of wild type EGFR (unknown origin)
[16] = Tmax in CD-1 mouse at 10 mg/kg, po; format: ADME, organism-based; details: in vivo
Homo sapiens [17] = organism: Homo sapiens; assay: Selectivity ratio of IC50 for inhibition of wild type EGFR (unknown origin) to IC50 for inhibition of EGFR del19 mutant (unknown origin)
Homo sapiens [18] = organism: Homo sapiens; assay: Selectivity ratio of IC50 for inhibition of wild type EGFR (unknown origin) to IC50 for inhibition of EGFR L858R/T790M/C797S mutant (unknown origin)
[19] = Cmax in CD-1 mouse at 10 mg/kg, po; format: ADME, organism-based; set-up: dose 10 mg/kg, route po; details: in vivo
[20] = Half-life in CD-1 mouse at 2 mg/kg, iv; format: ADME, organism-based; details: in vivo
[21] = target: Epidermal growth factor receptor (Homo sapiens, UniProt P00533, EX19DEL); assay: Inhibition of EGFR del19 mutant (unknown origin)
[22] = target: Epidermal growth factor receptor (Homo sapiens, UniProt P00533, C797S/EX19DEL/T790M); assay: Inhibition of EGFR del19/T790M/C797S mutant (unknown origin)
Epidermal growth factor receptor (Homo sapiens, UniProt P00533, C797S/EX19DEL/T790M), sequence (P00533 whole entry, looked up, stated change not applied): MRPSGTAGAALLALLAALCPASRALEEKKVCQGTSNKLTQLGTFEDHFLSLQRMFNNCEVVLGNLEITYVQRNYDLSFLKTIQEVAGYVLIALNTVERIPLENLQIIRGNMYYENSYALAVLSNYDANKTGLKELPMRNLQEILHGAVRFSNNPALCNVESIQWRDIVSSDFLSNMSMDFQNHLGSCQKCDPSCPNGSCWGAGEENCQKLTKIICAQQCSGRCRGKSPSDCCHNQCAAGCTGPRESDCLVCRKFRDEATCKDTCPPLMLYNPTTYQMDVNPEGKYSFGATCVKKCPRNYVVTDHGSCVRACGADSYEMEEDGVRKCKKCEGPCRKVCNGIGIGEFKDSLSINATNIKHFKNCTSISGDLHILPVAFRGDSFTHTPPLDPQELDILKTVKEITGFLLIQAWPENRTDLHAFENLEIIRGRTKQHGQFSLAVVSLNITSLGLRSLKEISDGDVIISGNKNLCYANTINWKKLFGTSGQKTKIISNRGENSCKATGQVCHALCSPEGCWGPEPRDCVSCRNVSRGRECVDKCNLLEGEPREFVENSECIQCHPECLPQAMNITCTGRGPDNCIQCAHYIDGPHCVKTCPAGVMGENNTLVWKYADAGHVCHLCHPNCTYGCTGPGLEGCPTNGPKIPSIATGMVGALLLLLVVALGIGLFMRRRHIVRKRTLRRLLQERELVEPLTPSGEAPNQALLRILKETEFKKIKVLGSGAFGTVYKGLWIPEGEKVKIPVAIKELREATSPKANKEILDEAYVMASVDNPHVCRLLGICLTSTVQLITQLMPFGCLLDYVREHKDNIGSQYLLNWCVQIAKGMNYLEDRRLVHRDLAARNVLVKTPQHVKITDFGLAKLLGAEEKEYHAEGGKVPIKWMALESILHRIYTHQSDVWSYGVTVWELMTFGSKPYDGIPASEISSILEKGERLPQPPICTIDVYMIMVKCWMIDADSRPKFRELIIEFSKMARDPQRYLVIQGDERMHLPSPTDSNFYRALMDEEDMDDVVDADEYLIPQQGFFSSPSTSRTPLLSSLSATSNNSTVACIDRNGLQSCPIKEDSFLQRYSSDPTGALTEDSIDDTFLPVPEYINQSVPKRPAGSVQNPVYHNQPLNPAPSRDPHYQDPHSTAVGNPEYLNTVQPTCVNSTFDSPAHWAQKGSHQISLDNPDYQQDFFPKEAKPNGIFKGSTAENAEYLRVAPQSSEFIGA

[23] = AUC (0 to last) in CD-1 mouse at 10 mg/kg, po; format: ADME, organism-based; set-up: time 0 - last, dose 10 mg/kg, route po; details: in vivo

CCc1cc(Nc2ncc(Br)c(Nc3ccc4c(ccc5ccccc54)c3P(C)(C)=O)n2)c(OC)cc1N1CCC(N2CCN(C)CC2)CC1 gave an IC50 (PC-9 [1]) greater than 1000 nM and an IC50 (BaF3) greater than 1000 nM.
Work on CCc1cc(Nc2ncc(Br)c(Nc3cc4c5c(cccc5c3P(C)(C)=O)CC4)n2)c(OC)cc1N1CCC(N2CCN(C)CC2)CC1 yielded an IC50 (PC-9 [1]) greater than 1000 nM and an IC50 (BaF3) greater than 1000 nM.
Work on COc1cc(N2CCC(N3CCN(C)CC3)CC2)c(-c2cnn(C3CC3)c2)cc1Nc1ncc(Br)c(Nc2ccc(C)c(C)c2P(C)(C)=O)n1 yielded an IC50 (PC-9 [1]) greater than 1000 nM and an IC50 (BaF3) greater than 1000 nM.
Work on COc1cc(N2CCC(N3CCN(C)CC3)CC2)ccc1Nc1ncc(Cl)c(Nc2ccccc2P(C)(C)=O)n1 [BRIGATINIB] yielded an IC50 (PC-9 [2]) of 599 nM.
For COc1cc(N2CCC(N3CCN(C)CC3)CC2)ccc1Nc1ncc(Br)c(Nc2cc3c4c(cccc4c2P(C)(C)=O)CC3)n1, the IC50 (PC-9 [1]) was greater than 1000 nM and the IC50 (BaF3) was greater than 1000 nM.
COc1cc(N2CCC(N3CCN(C)CC3)CC2)ccc1Nc1ncc(Br)c(Nc2cc3c4c(cccc4c2P(C)(C)=O)COC3)n1 showed an IC50 (PC-9 [1]) greater than 1000 nM and an IC50 (BaF3) greater than 1000 nM.
For CCc1cc(Nc2ncc(Br)c(Nc3ccc4nc5c(nc4c3P(C)(C)=O)CCCC5)n2)c(OC)cc1N1CCC(N2CCN(C)CC2)CC1, the IC50 (PC-9 [1]) was 217 nM and the IC50 (BaF3) was 37.4 nM.
In the case of COc1cc(N2CCC(N3CCN(C)CC3)CC2)c(-c2cnn(C)c2)cc1Nc1ncc(Br)c(Nc2cc(F)c(C)c(C)c2P(C)(C)=O)n1, the IC50 (PC-9 [1]) is reported as greater than 1000 nM and the IC50 (BaF3) is reported as greater than 1000 nM.
COc1cc(N2CCC(N3CCN(CCS(C)(=O)=O)CC3)CC2)c(-c2cnn(C)c2)cc1Nc1ncc(Br)c(Nc2ccc(C)c(C)c2P(C)(C)=O)n1 gave an IC50 (PC-9 [1]) greater than 1000 nM and an IC50 (BaF3) greater than 1000 nM.
Work on CCc1cc(Nc2ncc(Br)c(Nc3ccc4nccnc4c3P(C)(C)=O)n2)c(OC)cc1N1CCC(N(C)CCS(C)(=O)=O)CC1 yielded an IC50 (PC-9 [1]) of 127 nM.
COc1cc(N2CCC(N3CCN(C)CC3)CC2)c(-c2cnn(C)c2)cc1Nc1ncc(Br)c(Nc2cc(C)c(C)c(C)c2P(C)(C)=O)n1 gave an IC50 (PC-9 [1]) of 67.4 nM and an IC50 (BaF3) of 3.6 nM.
For CCc1cc(Nc2ncc(Br)c(Nc3ccc4nccnc4c3P(C)(C)=O)n2)c(OC)cc1N1CCC(N2CCN(CCS(C)(=O)=O)CC2)CC1, the AUClast [3] was 13820 ng·h/mL, the IC50 (PC-9 [1]) was 66.7 nM and the Ratio IC50 (Homo sapiens [4]) was 81. It also gave an IC50 [5] of 3.1 nM, an IC50 [6] of 0.2 nM and a Ratio IC50 (Homo sapiens [7]) of 3.4. It also gave a bioavailability [8] of 48.9%, an IC50 [9] of 0.3 nM and a Ratio IC50 (Homo sapiens [10]) of 54. For the same compound, the IC50 [11] was 0.1 nM, the IC50 (BaF3) was 1.53 nM and the Ratio IC50 (Homo sapiens [12]) was 43. It also gave a clearance [13] of 2.4 mL/min/kg, a Vd [14] of 0.7 L/kg and an IC50 [15] of 10.4 nM. It also gave a Tmax [16] of 0.5 h, a Ratio IC50 (Homo sapiens [17]) of 11 and a Ratio IC50 (Homo sapiens [18]) of 41. For the same compound, the Cmax [19] was 6600 ng/mL, the half-life [20] was 3.3 h and the IC50 [21] was 0.9 nM. It also gave an IC50 [22] of 0.2 nM and an AUC(0-t) [23] of 33800 ng·h/mL.
For CCc1cc(Nc2ncc(Br)c(Nc3ccc(C4CC4)cc3P(C)(C)=O)n2)c(OC)cc1N1CCC(N2CCN(CCS(C)(=O)=O)CC2)CC1, the IC50 (PC-9 [1]) was greater than 1000 nM and the IC50 (BaF3) was greater than 1000 nM.
In the case of CCc1cc(Nc2ncc(Br)c(Nc3cc4c5c(cccc5c3P(C)(C)=O)COC4)n2)c(OC)cc1N1CCC(N2CCN(C)CC2)CC1, the IC50 (PC-9 [1]) is reported as greater than 1000 nM and the IC50 (BaF3) is reported as greater than 1000 nM.
With COc1cc(N2CCC(N3CCN(C)CC3)CC2)ccc1Nc1ncc(Br)c(Nc2ccc3c(ccc4ccccc43)c2P(C)(C)=O)n1 the IC50 (PC-9 [1]) was greater than 1000 nM and the IC50 (BaF3) was greater than 1000 nM.
For CCc1cc(Nc2ncc(Br)c(Nc3ccc4nccnc4c3P(C)(C)=O)n2)c(OC)cc1N1CCC(N2CCN(CCSC)CC2)CC1, the IC50 (PC-9 [1]) was 148 nM and the IC50 (BaF3) was 3.87 nM.

— ChEMBL document CHEMBL5113388 (Bioorg Med Chem Lett, 2022)
